Reference: US10670605B2, “Cysteine reactive probes and uses thereof” (The Scripps Research Institute, priority 2015, dated 2020)

Assays:
Test in all cases: Competitive isoTOP-ABPP, cell lysates
Type in all cases: binding
Conditions in all cases: 500 μm, in-vitro_ramos_231
ACAT1 C119 (P24752) = target: T1, ACAT1 C119 (P24752) (Homo sapiens, UniProt P24752)
T1 sequence (P24752 34-427): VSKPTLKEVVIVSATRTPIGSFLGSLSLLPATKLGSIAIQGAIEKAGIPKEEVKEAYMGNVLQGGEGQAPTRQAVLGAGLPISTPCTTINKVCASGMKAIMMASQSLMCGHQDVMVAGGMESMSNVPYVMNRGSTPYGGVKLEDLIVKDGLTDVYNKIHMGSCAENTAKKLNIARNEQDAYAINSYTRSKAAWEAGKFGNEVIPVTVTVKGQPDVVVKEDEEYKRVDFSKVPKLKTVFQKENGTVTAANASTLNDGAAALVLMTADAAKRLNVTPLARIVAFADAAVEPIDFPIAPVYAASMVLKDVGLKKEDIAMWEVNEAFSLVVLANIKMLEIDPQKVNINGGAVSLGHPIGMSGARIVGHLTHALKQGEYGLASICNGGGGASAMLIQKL

IDH1 C269 (O75874) = IDH1 C269 (O75874) (Homo sapiens, UniProt O75874)
Experimental: (§1) TEV digests were pressure loaded onto a 250 μm (inner diameter) fused silica capillary column packed with C18 resin (Aqua 5 μm, Phenomenex). The samples were analyzed by multidimensional liquid chromatography tandem mass spectrometry (MudPIT), using an LTQ-Velos Orbitrap mass spectrometer (Thermo Scientific) coupled to an Agilent 1200-series quaternary pump. The peptides were eluted onto a biphasic column with a 5 μm tip (100 μm fused silica, packed with C18 (10 cm) and bulk strong cation exchange resin (3 cm, SCX, Phenomenex,)) in a 5-step MudPIT experiment, using 0%, 30%, 60%, 90%, and 100% salt bumps of 500 mM aqueous ammonium acetate and using a gradient of 5-100% buffer B in buffer A (buffer A: 95% water, 5% acetonitrile, 0.1% formic acid; buffer B: 5% water, 95% acetonitrile, 0.1% formic acid) as has been described in Weerapana et al. Nat Protoc 2:1414-1425 (2007). Data was collected in data-dependent acquisition mode with dynamic exclusion enabled (20 s, repeat of 2). One full MS (MS1) scan (400-1800 m/z) was followed by 30 MS2 scans (ITMS) of the nth most abundant ions.
(§2) The ratios of heavy/light for each unique peptide (DMSO/compound treated; isoTOP-ABPP ratios, R values) were quantified with in-house CIMAGE software, using default parameters (3 ms s per peak and signal to noise threshold 2.5). Site-specific engagement of electrophilic fragments was assessed by blockade of IA-alkyne probe labeling. […] Ratios for unique peptide entries were calculated for each experiment; overlapping peptides with the same modified cysteine (e.g. different charge states, MudPIT chromatographic steps or tryptic termini) were grouped together and the median ratio was reported as the final ratio (R). The peptide ratios reported by CIMAGE were further filtered to ensure the removal or correction of low quality ratios in each individual dataset. The quality filters applied were the following: removal of half tryptic peptides; for ratios with high standard deviations from the median (90% of the median or above) the lowest ratio was taken instead of the median; removal of peptides with R=20 and only a single ms2 event triggered during the elution of the parent ion; manual annotation of all the peptides with ratios of 20, removing any peptides with low-quality elution profiles that remained after the previous curation steps. Proteome reactivity values for individual fragments were computed as the percentage of the total quantified cysteine-containing peptides with R values≥4 (defined as liganded cysteines) for each replicate experiment and the final proteome reactivity value was calculated as the mean for all replicate experiments for each fragment from both MDA-MB-231 and Ramos cellular proteomes.
(§3) Biological replicates of the same compound and cell-line were averaged if the standard deviation was below 60% of the mean; otherwise the lowest value of the ratio set was taken.

GNB2L1 C182 (P63244) = GNB2L1 C182 (P63244) (Homo sapiens, UniProt P63244)
Experimental: as §1, §2, §3

GSTP1 C48 (P09211) = GSTP1 C48 (P09211) (Homo sapiens, UniProt P09211)
Experimental: as §1, §2, §3

PRMT1 C109 (Q99873) = PRMT1 C109 (Q99873) (Homo sapiens, UniProt Q99873)
Experimental: as §1, §2, §3

IDH2 C308 (P48735) = target: T2, IDH2 C308 (P48735) (Homo sapiens, UniProt P48735)
T2 sequence (P48735 40-452): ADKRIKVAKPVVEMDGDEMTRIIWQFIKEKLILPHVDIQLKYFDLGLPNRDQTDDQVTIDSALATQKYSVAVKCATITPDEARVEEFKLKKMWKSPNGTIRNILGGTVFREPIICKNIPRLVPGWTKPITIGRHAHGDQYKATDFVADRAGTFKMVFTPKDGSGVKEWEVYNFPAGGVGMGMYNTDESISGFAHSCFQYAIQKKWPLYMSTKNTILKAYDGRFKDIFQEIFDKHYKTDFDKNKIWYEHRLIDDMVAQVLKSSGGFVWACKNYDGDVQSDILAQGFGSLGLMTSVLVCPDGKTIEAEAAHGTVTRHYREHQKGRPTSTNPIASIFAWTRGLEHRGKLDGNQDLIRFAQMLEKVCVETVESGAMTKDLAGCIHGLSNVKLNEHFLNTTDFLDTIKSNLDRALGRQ
Experimental: as §1, §2, §3

XPO1 C34 (O14980) = XPO1 C34 (O14980) (Homo sapiens, UniProt O14980)
Experimental: as §1, §2, §3

ACAT1 C196 (P24752) = target: T3, ACAT1 C196 (P24752) (Homo sapiens, UniProt P24752)
T3 sequence (P24752 34-427): T1 sequence (P24752 34-427)

ACAT1 C413 (P24752) = target: T4, ACAT1 C413 (P24752) (Homo sapiens, UniProt P24752)
T4 sequence (P24752 34-427): T1 sequence (P24752 34-427)

XPO1 C34 (O14980), sequence (O14980 whole entry): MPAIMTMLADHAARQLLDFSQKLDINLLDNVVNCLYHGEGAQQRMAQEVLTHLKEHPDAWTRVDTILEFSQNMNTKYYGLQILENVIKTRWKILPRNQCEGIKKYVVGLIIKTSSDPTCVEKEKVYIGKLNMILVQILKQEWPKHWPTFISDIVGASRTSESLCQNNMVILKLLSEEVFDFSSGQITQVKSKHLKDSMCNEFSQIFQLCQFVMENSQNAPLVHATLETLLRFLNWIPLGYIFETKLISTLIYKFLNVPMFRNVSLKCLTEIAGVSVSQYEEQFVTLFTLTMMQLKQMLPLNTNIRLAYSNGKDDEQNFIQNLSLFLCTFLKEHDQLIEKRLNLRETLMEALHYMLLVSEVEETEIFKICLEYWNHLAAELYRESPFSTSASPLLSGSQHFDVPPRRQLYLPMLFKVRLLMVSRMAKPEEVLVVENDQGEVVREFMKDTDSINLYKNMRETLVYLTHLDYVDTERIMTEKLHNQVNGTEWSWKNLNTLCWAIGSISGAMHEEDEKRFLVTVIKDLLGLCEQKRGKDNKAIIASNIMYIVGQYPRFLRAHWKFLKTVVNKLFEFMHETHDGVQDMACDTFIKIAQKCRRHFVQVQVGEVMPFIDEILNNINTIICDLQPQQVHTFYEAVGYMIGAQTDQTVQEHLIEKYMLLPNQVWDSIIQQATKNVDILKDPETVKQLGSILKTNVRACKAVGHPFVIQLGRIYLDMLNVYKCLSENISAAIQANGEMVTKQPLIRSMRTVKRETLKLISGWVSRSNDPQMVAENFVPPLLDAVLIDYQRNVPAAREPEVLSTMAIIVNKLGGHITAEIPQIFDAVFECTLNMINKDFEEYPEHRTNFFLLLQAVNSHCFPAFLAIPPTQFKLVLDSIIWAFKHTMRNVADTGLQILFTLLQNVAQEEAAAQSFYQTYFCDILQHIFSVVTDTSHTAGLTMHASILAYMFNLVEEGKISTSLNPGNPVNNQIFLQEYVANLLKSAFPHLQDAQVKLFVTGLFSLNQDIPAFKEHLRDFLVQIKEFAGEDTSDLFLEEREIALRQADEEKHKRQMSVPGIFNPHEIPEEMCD
GSTP1 C48 (P09211), sequence (P09211 whole entry): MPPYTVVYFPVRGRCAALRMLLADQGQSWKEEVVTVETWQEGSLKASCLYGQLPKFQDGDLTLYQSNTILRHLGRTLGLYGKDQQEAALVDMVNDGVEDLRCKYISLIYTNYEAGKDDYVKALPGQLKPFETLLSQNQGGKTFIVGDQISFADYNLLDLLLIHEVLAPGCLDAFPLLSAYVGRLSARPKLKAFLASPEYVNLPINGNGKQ
IDH1 C269 (O75874), sequence (O75874 whole entry, the tested form may be a part): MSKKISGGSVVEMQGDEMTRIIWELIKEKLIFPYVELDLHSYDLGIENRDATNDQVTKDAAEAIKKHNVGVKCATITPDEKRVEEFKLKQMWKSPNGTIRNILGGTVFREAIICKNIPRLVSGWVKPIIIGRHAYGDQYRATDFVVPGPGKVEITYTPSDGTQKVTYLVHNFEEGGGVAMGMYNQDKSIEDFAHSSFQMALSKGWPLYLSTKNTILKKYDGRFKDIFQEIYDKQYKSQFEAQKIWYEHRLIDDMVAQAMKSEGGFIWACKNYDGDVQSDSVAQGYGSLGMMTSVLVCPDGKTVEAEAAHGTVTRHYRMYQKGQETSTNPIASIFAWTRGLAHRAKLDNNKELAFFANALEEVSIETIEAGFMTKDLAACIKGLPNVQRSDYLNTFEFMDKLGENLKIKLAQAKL
PRMT1 C109 (Q99873), sequence (Q99873 whole entry): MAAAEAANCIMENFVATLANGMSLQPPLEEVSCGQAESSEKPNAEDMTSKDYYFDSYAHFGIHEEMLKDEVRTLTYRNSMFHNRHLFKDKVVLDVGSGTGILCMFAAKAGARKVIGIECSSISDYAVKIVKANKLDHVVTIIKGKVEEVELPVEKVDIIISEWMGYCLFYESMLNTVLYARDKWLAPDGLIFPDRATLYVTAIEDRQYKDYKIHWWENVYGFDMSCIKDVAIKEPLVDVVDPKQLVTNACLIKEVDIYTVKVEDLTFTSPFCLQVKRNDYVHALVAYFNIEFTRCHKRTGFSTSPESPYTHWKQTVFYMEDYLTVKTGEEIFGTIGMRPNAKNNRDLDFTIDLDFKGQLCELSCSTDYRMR

isoTOP-ABPP reactivity ratio, P24752_C119 (ACAT1 C119 (P24752)): 1.2
isoTOP-ABPP reactivity ratio, O75874_C269 (IDH1 C269 (O75874)): 1.7
isoTOP-ABPP reactivity ratio, P63244_C182 (GNB2L1 C182 (P63244)): 1.3
isoTOP-ABPP reactivity ratio, P09211_C48 (GSTP1 C48 (P09211)): 1.6
isoTOP-ABPP reactivity ratio, Q99873_C109 (PRMT1 C109 (Q99873)): 1.0
isoTOP-ABPP reactivity ratio, P48735_C308 (IDH2 C308 (P48735)): 1.3
isoTOP-ABPP reactivity ratio, O14980_C34 (XPO1 C34 (O14980)): 1.3
isoTOP-ABPP reactivity ratio, P24752_C196 (ACAT1 C196 (P24752)): 1.5
isoTOP-ABPP reactivity ratio, P24752_C413 (ACAT1 C413 (P24752)): 2.7
SMILES: O=C(CCl)Nc1cc(C(=O)O)cc(C(F)(F)F)c1 [compound 36]
